From article PMC12703733, “Probing Guanidino Pendant or Bridged Groups in Cyclic Antimicrobial Peptides Derived from Temporin L: A Strategy to Improve Efficacy against Gram-Negative Bacteria” (Journal of Medicinal Chemistry, 2025)
Like-named read-outs stand apart in the source and are kept apart here. Bridge positions count the residues as written; N and C are the ends. Square brackets hold non-standard residues; d marks the D form. Peptide text beside a SMILES is read from it. * marks the point of attachment. Phe(4-guanidino) = N=C(N)Nc1ccc(C[C@H](N)C(=O)O)cc1; Butanoyl(4-guanidino) = N=C(N)NCCCC(=O)*; Propanoyl(3-guanidino) = N=C(N)NCCC(=O)*; X1 = N=C(N)N[C@@H](Cc1ccccc1)C(=O)*

Columns and labels:
B. megaterium BM11 = assay: microbe, parasite or virus in culture; type: cell-based
Experimental: (§1) Bacterial strains used in this study were the Gram-positive S. aureus ATCC 25923, S. epidermidis ATCC 12228, B. megaterium BM11, S. [NT] 27591, E. faecalis ATCC 29212 and the Gram-negative E. coli ATCC 25922, P. aeruginosa ATCC 27853, A. baumannii ATCC 19606, E. coli D21 and P. aeruginosa PAO1. […] Bacterial cells in the mid log phase were diluted in Muller Hinton (MH) at a concentration of 2 × 10^6 cell/mL. […] Ciprofloxacin was used as antibiotic control. The plate was then incubated at 37 °C. MICs were obtained from three identical readings of four independent experiments.

E. faecalis ATCC 29212 = assay: microbe, parasite or virus in culture; type: cell-based
Experimental: as §1

E. coli ATCC 25922 = assay: microbe, parasite or virus in culture; type: cell-based
Experimental: as §1

S. aureus ATCC 25923 = assay: microbe, parasite or virus in culture; type: cell-based
Experimental: as §1

[1] = system: S. epidermidis ATCC 12228; assay: microbe, parasite or virus in culture; type: cell-based
Experimental: as §1

P. aeruginosa ATCC 27853 = assay: microbe, parasite or virus in culture; type: cell-based
Experimental: as §1

P. aeruginosa PAO1 = assay: microbe, parasite or virus in culture; type: cell-based
Experimental: as §1

A. baumannii ATCC 19606 = assay: microbe, parasite or virus in culture; type: cell-based
Experimental: as §1

E. coli D21 = assay: microbe, parasite or virus in culture; type: cell-based
Experimental: as §1

S. agalactiae ATCC 27591 = assay: microbe, parasite or virus in culture; type: cell-based
Experimental: as §1

circular dichroism = details: water; pH ns; 25 °C; 150 uM
[2] = type: cell-based, human; details: human; for viability at 2 h, 3.12 µM / viability at 2 h, 6.25 µM / viability at 2 h, 12.5 µM / viability at 2 h, 25 µM / viability at 2 h, 50 µM / viability at 2 h, 100 µM / viability at 24 h, 3.12 µM / viability at 24 h, 6.25 µM / viability at 24 h, 12.5 µM / viability at 24 h, 25 µM / viability at 24 h, 50 µM / viability at 24 h, 100 µM: Cell viability (%)
Experimental: (§2) For the evaluation of peptides’ cytotoxicity, the human immortalized keratinocytes (HaCaT cells), purchased from AddexBio (San Diego, CA, USA), and BEAS-2B were used. HaCaT cells were cultured in Dulbecco’s modified Eagle’s medium supplemented with 4 mM glutamine (DMEM), 10% heat-inactivated fetal bovine serum (FBS), and 0.1 mg/mL of penicillin and streptomycin, at 37 °C and 5% CO2. BEAS-2B cells were cultured in RPMI, supplemented with 2 mM glutamine (DMEM), 10% heat-inactivated fetal bovine serum (FBS), 1 mM sodium pyruvate, and 0.1 mg/mL of penicillin and streptomycin, at 37 °C and 5% CO2. Cytotoxicity was tested in vitro using a colorimetric assay that relies on the intracellular reduction of the yellow 3-(4,5-dimethylthiazol-2-yl)-2,5-diphenyltetrazolium bromide salt (MTT) by mitochondrial dehydrogenases of metabolically active cells in formazan crystals (purple). About 4 × 10^4 HaCaT and BEAS-2B cells, suspended in DMEM supplemented with 2% FBS, were plated in triplicate wells of a 96-well microtiter plate. The plate was incubated overnight at 37 °C and 5% CO2. Then, the cells were treated with different concentrations of the peptide (from 100 to 3.12 μM) in a fresh serum-free medium for 2 h and for a longer time (24 h). Following peptide treatment, the medium was removed, and MTT (0.5 mg/mL) solution in Hank’s buffer (136 mM NaCl, 4.2 mM Na2HPO4, 4.4 mM KH2PO4, 5.4 mM KCl, 4.1 mM NaHCO3, pH 7.2, supplemented with 20 mM D-glucose) was added to each well of the plate, that was then incubated for 4 h at 37 °C and 5% CO2. The purple formazan crystals were dissolved using acidified 2-propanol and a microplate reader (Infinite M200; Tecan, Salzburg, Austria) was used to measure the absorbance of each well at 570 nm. The percentage of cell viability was calculated compared to the control, which consisted of cells without any peptide treatment (corresponding to 100% viability) and all data represent the mean of three independent experiments ± SEM.

[3] = system: human keratinocytes (HaCaT cells); type: cell-based
Experimental: as §2

SMILES | MIC (B. megaterium BM11; BM11) [µM] | MIC (E. faecalis ATCC 29212; ATCC 29212) [µM] | MIC (E. coli ATCC 25922; ATCC 25922) [µM] | MIC (S. aureus ATCC 25923; ATCC 25923) [µM] | MIC ([1]; ATCC 12228) [µM] | MIC (P. aeruginosa ATCC 27853; ATCC 27853) [µM] | MIC (A. baumannii ATCC 19606; ATCC 19606) [µM] | MIC (E. coli D21; D21) [µM] | MIC (S. agalactiae ATCC 27591; ATCC 27591) [µM] | helicity (circular dichroism) [%] | viability at 2 h, 3.12 µM [2] [%] | viability at 2 h, 6.25 µM [2] [%] | viability at 2 h, 12.5 µM [2] [%] | viability at 2 h, 25 µM [2] [%] | viability at 2 h, 50 µM [2] [%] | viability at 2 h, 100 µM [2] [%] | viability at 24 h, 3.12 µM [2] [%] | viability at 24 h, 6.25 µM [2] [%] | viability at 24 h, 12.5 µM [2] [%] | viability at 24 h, 25 µM [2] [%] | further results
O=C(O)c1cn(C2CC2)c2cc(N3CCNCC3)c(F)cc2c1=O [Ciprofloxacin, reference compound] | – | – | – | – | – | – | – | – | – | – | – | – | – | – | – | – | – | – | – | – | MIC (B. megaterium BM11; Priestia megaterium, B. megaterium BM11, antibiotic control, read-out: MIC): 0.12 µg/mL; MIC (E. faecalis ATCC 29212; Enterococcus faecalis, ATCC29212, E. faecalis ATCC 29212, antibiotic control, read-out: MIC): 0.5 µg/mL; MIC (E. coli ATCC 25922; Escherichia coli, ATCC25922, E. coli ATCC 25922, antibiotic control, read-out: MIC): 0.01 µg/mL; MIC (S. aureus ATCC 25923; Staphylococcus aureus, ATCC25923, S. aureus ATCC 25923, antibiotic control, read-out: MIC): 0.5 µg/mL; MIC ([1]; Staphylococcus epidermidis, ATCC12228, S. epidermidis ATCC 12228, antibiotic control, read-out: MIC): 0.25 µg/mL; MIC (P. aeruginosa ATCC 27853; Pseudomonas aeruginosa, ATCC27853, P. aeruginosa ATCC 27853, antibiotic control, read-out: MIC): 0.5 µg/mL; MIC (P. aeruginosa PAO1; Pseudomonas aeruginosa, P. aeruginosa PAO1, antibiotic control, read-out: MIC): 0.12 µg/mL; MIC (A. baumannii ATCC 19606; Acinetobacter baumannii, ATCC19606, A. baumannii ATCC 19606, antibiotic control, read-out: MIC): 1 µg/mL; MIC (E. coli D21; Escherichia coli, E. coli D21, antibiotic control, read-out: MIC): 0.01 µg/mL; MIC (S. agalactiae ATCC 27591; Streptococcus agalactiae, ATCC27591, S. agalactiae ATCC 27591, antibiotic control, read-out: MIC): 0.5 µg/mL
CC[C@H](C)[C@H](NC(=O)[C@H](CCCNC(=N)N)NC(=O)[C@H]1CCC(=O)NCCCC[C@H](NC(=O)[C@H](Cc2ccccc2)NC(=O)[C@H](Cc2c[nH]c3ccccc23)NC(=O)[C@@H]2CCCN2C(=O)[C@@H](NC(=O)[C@H](Cc2ccccc2)NC(=N)N)C(C)C)C(=O)N[C@@H](CCCCN)C(=O)N[C@@H](Cc2ccccc2)C(=O)N[C@H](CC(C)C)C(=O)N1)C(=O)N[C@@H](CC(C)C)C(N)=O [Peptide 3, guanidino-FVPWF[KKFle]RIL] (X1-VPWFKKF[dL][dE]RIL-NH2; lactam 5-9) | 0.78 | 25 | 6.25 | 6.25 | 3.12 | 100 | 3.12 | 6.25 | 3.12 | 1 | 126 | 137 | 125 | 104 | 52 | 5 | 93 ± 9 | 105 ± 2 | 107 ± 8 | 86 ± 5 | MIC (P. aeruginosa PAO1; PAO1): 50 µM; CC50 at 24 h [2]: 38.6 µM; viability at 24 h, 50 µM [2]: 29 ± 2%; viability at 24 h, 100 µM [2]: 4 ± 1%
CC[C@H](C)[C@H](NC(=O)[C@H](CCCNC(=N)N)NC(=O)[C@H]1CCC(=O)NCCCC[C@H](NC(=O)[C@H](Cc2ccccc2)NC(=O)[C@H](Cc2c[nH]c3ccccc23)NC(=O)[C@@H]2CCCN2C(=O)[C@@H](NC(=O)[C@H](Cc2ccccc2)NC(=O)CCNC(=N)N)C(C)C)C(=O)N[C@@H](CCCCN)C(=O)N[C@@H](Cc2ccccc2)C(=O)N[C@H](CC(C)C)C(=O)N1)C(=O)N[C@@H](CC(C)C)C(N)=O [Peptide 4, guanidino-βAla-FVPWF[KKFle]RIL] ({Propanoyl(3-guanidino)}-FVPWFKKF[dL][dE]RIL-NH2; lactam 6-10) | 0.78 | 6.25 | 3.12 | 3.12 | 1.56 | 25 | 3.12 | 6.25 | 1.56 | 12 | 100 | 100 | 100 | 47 | 7 | 8 | 98 ± 1 | 93 ± 2 | 88 ± 4 | 21 ± 3 | MIC (P. aeruginosa PAO1; PAO1): 25 µM; CC50 at 24 h [2]: 19.4 µM; viability at 24 h, 50 µM [2]: 0%; viability at 24 h, 100 µM [2]: 0%
CC[C@H](C)[C@H](NC(=O)[C@H](CCCNC(=N)N)NC(=O)[C@H]1CCC(=O)NCCCC[C@H](NC(=O)[C@H](Cc2ccccc2)NC(=O)[C@H](Cc2c[nH]c3ccccc23)NC(=O)[C@@H]2CCCN2C(=O)[C@@H](NC(=O)[C@H](Cc2ccccc2)NC(=O)CCCNC(=N)N)C(C)C)C(=O)N[C@@H](CCCCN)C(=O)N[C@@H](Cc2ccccc2)C(=O)N[C@H](CC(C)C)C(=O)N1)C(=O)N[C@@H](CC(C)C)C(N)=O [Peptide 5, guanidino-GABA-FVPWF[KKFle]RIL] ({Butanoyl(4-guanidino)}-FVPWFKKF[dL][dE]RIL-NH2; lactam 6-10) | 0.78 | 6.25 | 6.25 | 3.12 | 3.12 | 50 | 3.12 | 6.25 | 1.56 | 16 | 128 | 126 | 128 | 76 | 18 | 4 | 116 ± 7 | 137 ± 15 | 147 ± 15 | 58 ± 6 | MIC (P. aeruginosa PAO1; PAO1): 25 µM; CC50 at 24 h [2]: 24.6 µM; viability at 24 h, 50 µM [2]: 1 ± 1%; viability at 24 h, 100 µM [2]: 1 ± 1%
CC[C@H](C)[C@H](NC(=O)[C@H](CCCNC(=N)N)NC(=O)[C@H]1CCC(=O)NCCCC[C@H](NC(=O)[C@H](Cc2ccc(NC(=N)N)cc2)NC(=O)[C@H](Cc2c[nH]c3ccccc23)NC(=O)[C@@H]2CCCN2C(=O)[C@@H](NC(=O)[C@@H](N)Cc2ccccc2)C(C)C)C(=O)N[C@@H](CCCCN)C(=O)N[C@@H](Cc2ccccc2)C(=O)N[C@H](CC(C)C)C(=O)N1)C(=O)N[C@@H](CC(C)C)C(N)=O [Peptide 8, FVPW(p-guanidino)F[KKFle]RIL] (H-FVPW[Phe(4-guanidino)]KKF[dL][dE]RIL-NH2; lactam 6-10) | 0.78 | 25 | 12.5 | 25 | 6.25 | 50 | 6.25 | 6.25 | 3.12 | 7 | 111 | 112 | 115 | 110 | 92 | 63 | 101 ± 4 | 105 ± 6 | 110 ± 3 | 124 ± 1 | MIC (P. aeruginosa PAO1; PAO1): 25 µM; viability at 24 h, 100 µM [2]: 58 ± 9%
CC[C@H](C)[C@H](NC(=O)[C@H](CCCNC(=N)N)NC(=O)[C@@H]1CCCNC(=N)NCCC[C@H](NC(=O)[C@H](Cc2ccccc2)NC(=O)[C@H](Cc2c[nH]c3ccccc23)NC(=O)[C@@H]2CCCN2C(=O)[C@@H](NC(=O)[C@@H](N)Cc2ccccc2)C(C)C)C(=O)N[C@@H](CCCCN)C(=O)N[C@@H](Cc2ccccc2)C(=O)N[C@H](CC(C)C)C(=O)N1)C(=O)N[C@@H](CC(C)C)C(N)=O [Peptide 13, FVPWF{OrnKFlOrn}RIL] | 0.39 | 6.25 | 6.25 | 6.25 | 1.56 | 50 | 1.56 | 6.25 | 1.56 | 10 | 107 | 104 | 76 | 31 | 7 | 2 | 103 ± 2 | 103 ± 3 | 97 ± 2 | 22 ± 2 | cytotoxicity (in words) [3]: Low cytotoxicity (up to 25 μM); CC50 at 24 h [2]: 19.7 µM; viability at 24 h, 50 µM [2]: 2 ± 1%; viability at 24 h, 100 µM [2]: 3 ± 1%
